Measurements as given in DBAASP.
≈ marks a conversion by molar mass, not a printed value. Each block holds one compound with its values, some of them ahead of it.

How the values were obtained:
Test in all cases: ≥ marks a high value that may be exact or a test limit, other limits are often not marked, values filed in µg/mL are converted to µM
[1] = test system: Candida albicans ATCC 10231
[2] = test system: Pseudomonas aeruginosa ATCC 10145
[3] = test system: Staphylococcus aureus ATCC 33591
[4] = test system: Escherichia coli ATCC 2592
[5] = test system: Cryptococcus neoformans ATCC 32045
Escherichia coli MC1041 = test system: Escherichia coli MC1041
[6] = test system: Salmonella enterica subsp. enterica serovar Enteritidis MH91989
[7] = test system: Escherichia coli JW2778 ΔygdD
[8] = test system: Salmonella typhimurium SL1344
Escherichia coli JW0013 = test system: Escherichia coli JW0013
Escherichia coli JJ2489 = test system: Escherichia coli JJ2489
Escherichia coli J2210 = test system: Escherichia coli J2210
Escherichia coli BW25113 = test system: Escherichia coli BW25113
[9] = test system: Escherichia coli JW0368 ΔsbmA
[10] = test system: Salmonella enterica subsp. enterica serovar Typhimurium ATCC 14028
[11] = test system: Klebsiella pneumoniae ATCC 700603
[12] = test system: Escherichia coli BW25113 ΔsbmA
[13] = test system: Pseudomonas aeruginosa ATCC 27853
[14] = test system: Acinetobacter baumannii ATCC 19606
[15] = test system: Escherichia coli ATCC 25922
[16] = test system: Staphylococcus aureus ATCC 25923
[17] = test system: Escherichia coli CCARM 1238
[18] = test system: Listeria monocytogenes KCTC 3710
[19] = test system: Staphylococcus aureus CCARM 3090
[20] = test system: Salmonella typhimurium KCTC 1926
[21] = test system: Candida albicans KCTC 7270
[22] = test system: Trichosporon beigelii KCTC 7707
[23] = test system: Bacillus subtilis KCTC 1998
[24] = test system: Pseudomonas aeruginosa 4891
[25] = test system: Escherichia coli CCARM 1229
[26] = test system: Staphylococcus aureus CCARM 3518
[27] = test system: Pseudomonas aeruginosa 4007
[28] = test system: Pseudomonas aeruginosa K799
[29] = test system: Salmonella enterica subsp. enterica serovar Typhimurium ATCC 14028s
[30] = test system: Enterococcus faecalis ATCC 29212
Escherichia coli UB1005 = test system: Escherichia coli UB1005
Listeria monocytogenes = test system: Listeria monocytogenes
[31] = test system: Staphylococcus epidermidis

SMILES: CC(C)C[C@H](NC(=O)[C@H](CCCCN)NC(=O)[C@H](CCCCN)NC(=O)[C@H](CC(C)C)NC(=O)[C@H](CC(C)C)NC(=O)[C@H](CCCCN)NC(=O)[C@H](CCCCN)NC(=O)[C@H](CC(C)C)NC(=O)[C@H](CC(C)C)NC(=O)[C@H](CCCCN)NC(=O)[C@H](CCCCN)NC(=O)[C@H](CC(C)C)NC(=O)[C@H](CC(C)C)NC(=O)[C@H](CCCCN)NC(=O)[C@H](CCCCN)NC(=O)[C@H](CC(C)C)NC(=O)[C@H](CC(C)C)NC(=O)[C@H](CCCCN)NC(=O)[C@H](CCCCN)NC(=O)[C@H](CC(C)C)NC(=O)[C@H](CC(C)C)NC(=O)[C@H](CCCCN)NC(=O)[C@H](CCCCN)NC(=O)[C@@H](N)CC(C)C)C(=O)O [LKKLLKKLLKKLLKKLLKKLLKKL]
- MIC [1]: 121 µM (≈ 354 µg/mL)
- MIC [2]: 22.3 µM (≈ 65 µg/mL)
- MIC [3]: ≥ 85.8 µM
- MIC [4]: 30.2 µM (≈ 88 µg/mL)
- MIC [5]: ≥ 42.9 µM

SMILES: CC(C)C[C@H](NC(=O)[C@H](CCCCN)NC(=O)[C@H](CC(C)C)NC(=O)[C@H](CCCCN)NC(=O)[C@H](CC(C)C)NC(=O)[C@H](CCCCN)NC(=O)[C@H](CC(C)C)NC(=O)[C@H](CCCCN)NC(=O)[C@H](CC(C)C)NC(=O)[C@H](CCCCN)NC(=O)[C@H](CC(C)C)NC(=O)[C@H](CCCCN)NC(=O)[C@H](CC(C)C)NC(=O)[C@H](CCCCN)NC(=O)[C@H](CC(C)C)NC(=O)[C@H](CCCCN)NC(=O)[C@H](CC(C)C)NC(=O)[C@H](CCCCN)NC(=O)[C@H](CC(C)C)NC(=O)[C@H](CCCCN)NC(=O)[C@@H](N)CC(C)C)C(=O)N[C@@H](CCCCN)C(=O)O [LKLKLKLKLKLKLKLKLKLKLK]
- MIC [1]: 132 µM (≈ 354 µg/mL)
- MIC [2]: 23.2 µM (≈ 62 µg/mL)
- MIC [3]: ≥ 93.5 µM
- MIC [4]: ≥ 46.8 µM
- MIC [5]: 16.7 µM (≈ 44.5 µg/mL)

SMILES: CC[C@H](C)[C@H](NC(=O)CNC(=O)[C@H](CCC(N)=O)NC(=O)[C@H](Cc1ccccc1)NC(=O)[C@@H](NC(=O)[C@H](CCCCN)NC(=O)[C@H](CCCCN)NC(=O)[C@H](CC(C)C)NC(=O)[C@H](C)NC(=O)[C@H](CC(N)=O)NC(=O)[C@H](CC(C)C)NC(=O)CN)C(C)C)C(=O)N[C@@H](Cc1cnc[nH]1)C(=O)N[C@@H](CCC(=O)O)C(=O)N[C@@H](C)C(=O)N[C@H](C(=O)N[C@@H](CCCCN)C(=O)N[C@@H](CCCCN)C(=O)N[C@H](C(=O)N[C@@H](CC(N)=O)C(=O)N[C@@H](CC(N)=O)C(=O)N[C@@H](Cc1cnc[nH]1)C(=O)N[C@H](C(=O)N[C@@H](CCC(N)=O)C(N)=O)C(C)C)[C@@H](C)CC)[C@@H](C)CC [GLNALKKVFQGIHEAIKKINNHVQ]
- MIC [17]: 4 µM (≈ 10.8 µg/mL)
- MIC [18]: 8 µM (≈ 21.6 µg/mL)
- MIC [19]: 8 µM (≈ 21.6 µg/mL)
- MIC [20]: 4 µM (≈ 10.8 µg/mL)
- MIC [13]: 2 µM (≈ 5.4 µg/mL)
- MIC [21]: ≥ 32 µM
- MIC [22]: ≥ 32 µM
- MIC [23]: 8 µM (≈ 21.6 µg/mL)
- MIC [24]: 8 µM (≈ 21.6 µg/mL)
- MIC [25]: 4 µM (≈ 10.8 µg/mL)
- MIC [15]: 4 µM (≈ 10.8 µg/mL)
- MIC [16]: 8 µM (≈ 21.6 µg/mL)
- MIC [26]: 8 µM (≈ 21.6 µg/mL)
- MIC [27]: 2 µM (≈ 5.4 µg/mL)

Results, then the compound that gave them:

- MIC (Escherichia coli MC1041): 0.06 µM (≈ 0.125 µg/mL)
- MIC [6]: 0.12 µM (≈ 0.25 µg/mL)
- MIC [7]: 0.12 µM (≈ 0.25 µg/mL)
- MIC [8]: 0.12 µM (≈ 0.25 µg/mL)
- MIC (Escherichia coli JW0013): 0.06 µM (≈ 0.125 µg/mL)
- MIC (Escherichia coli JJ2489): 0.12 µM (≈ 0.25 µg/mL)
- MIC (Escherichia coli J2210): 0.157 µM (≈ 0.326 µg/mL)
- MIC (Escherichia coli BW25113): 0.078 µM (≈ 0.162 µg/mL)
- MIC [9]: 0.06 µM (≈ 0.125 µg/mL)
SMILES: CC[C@H](C)[C@H](NC(=O)[C@H](CCCN=C(N)N)NC(=O)[C@@H](N)CCCN=C(N)N)C(=O)N[C@@H](CCCCN)C(=O)N[C@@H](CCCCN)C(=O)N[C@@H](CCCN=C(N)N)C(=O)N1CCC[C@H]1C(=O)N1CCC[C@H]1C(=O)N[C@@H](CCCN=C(N)N)C(=O)N[C@@H](CC(C)C)C(=O)N1CCC[C@H]1C(=O)N[C@@H](CCCN=C(N)N)C(=O)N1CCC[C@H]1C(=O)N[C@@H](CCCN=C(N)N)C(=O)N1CCC[C@H]1C(=O)N[C@@H](CCCN=C(N)N)C(=O)O [RRIKKRPPRLPRPRPR]

- MIC [10]: > 64 µM
- MIC [11]: > 64 µM
- MIC [12]: ≥ 64 µM
- MIC [13]: > 64 µM
- MIC [14]: > 64 µM
- MIC [15]: > 64 µM
- MIC [16]: > 64 µM
- MIC (Escherichia coli BW25113): ≥ 64 µM
SMILES: CC[C@H](C)[C@H](NC(=O)[C@@H]1CCCN1)C(=O)N[C@@H](CCCN=C(N)N)C(=O)N[C@@H](CCCN=C(N)N)C(=O)N1CCC[C@H]1C(=O)N1CCC[C@H]1C(=O)N[C@H](C(=O)N[C@@H](CCCN=C(N)N)C(=O)N1CCC[C@H]1C(=O)N1CCC[C@H]1C(=O)N[C@@H](Cc1ccccc1)C(=O)N[C@@H](Cc1ccc(O)cc1)C(=O)N1CCC[C@H]1C(=O)N1CCC[C@H]1C(=O)N[C@@H](Cc1ccccc1)C(=O)N[C@@H](CCCN=C(N)N)C(=O)N1CCC[C@H]1C(=O)N1CCC[C@H]1C(=O)N[C@H](C(=O)N[C@@H](CCCN=C(N)N)C(=O)N1CCC[C@H]1C(=O)O)[C@@H](C)CC)[C@@H](C)CC [PIRRPPIRPPFYPPFRPPIRP]

- MIC [28]: ≥ 46.2 µM
- MIC [29]: 23.1 µM (≈ 32 µg/mL)
- MIC [30]: > 46.2 µM
- MIC (Escherichia coli UB1005): 11.5 µM (≈ 16 µg/mL)
- MIC [16]: > 46.2 µM
- MIC (Listeria monocytogenes): 11.5 µM (≈ 16 µg/mL)
- MIC [31]: ≥ 46.2 µM
SMILES: CC[C@H](C)[C@@H]1NC(=O)[C@H](C(C)C)NC(=O)[C@H](C(C)C)NC(=O)[C@H]([C@@H](C)CC)NC(=O)[C@@H]2CCCN2C(=O)[C@@H](NC(=O)[C@H](CCCCN)NC(=O)[C@@H](N)CCCCN)CSSC[C@@H](C(=O)N[C@@H](CCCCN)C(=O)O)NC(=O)[C@H](C(C)C)NC(=O)[C@H](CCCN=C(N)N)NC1=O [KKCPIVVIRVCK]

- MIC [10]: > 64 µM
- MIC [11]: > 64 µM
- MIC [12]: ≥ 64 µM
- MIC [13]: > 64 µM
- MIC [14]: > 64 µM
- MIC [15]: 64 µM (≈ 122 µg/mL)
- MIC [16]: > 64 µM
- MIC (Escherichia coli BW25113): ≥ 64 µM
SMILES: CC[C@H](C)[C@H](NC(=O)[C@@H]1CCCN1C(=O)[C@@H]1CCCN1C(=O)[C@H](CCCN=C(N)N)NC(=O)[C@H](Cc1ccccc1)NC(=O)[C@@H](N)CCCN=C(N)N)C(=O)N[C@@H](CCCN=C(N)N)C(=O)N[C@@H](CCCN=C(N)N)C(=O)N1CCC[C@H]1C(=O)N1CCC[C@H]1C(=O)N[C@H](C(=O)N[C@@H](CCCN=C(N)N)C(=O)N1CCC[C@H]1C(=O)N1CCC[C@H]1C(=O)N[C@@H](Cc1ccccc1)C(=O)O)[C@@H](C)CC [RFRPPIRRPPIRPPF]
